“And” between values parts separate entries of the source, which are not always exact repeats. Identical values can stand only once.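 96-well plates; 48 h exposure; 5 concentrations. Endpoints by linear interpolation between flanking doses. Not reached: highest tested concentration assigned. GI50 is the concentration that inhibits growth by half. TGI: concentration producing complete growth inhibition.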 Residues, ends and D or L forms follow the SMILES beside them. *: point of attachment. Cbz = O=C(OCc1ccccc1)*
These molecules were tested on MDA-MB-468 breast (assay: growth of human tumour cells (NCI), 48 h).

Row | Compound | GI50 | TGI
1 | COc1ccc(-c2[nH]nc(N)c2-c2cc(OC)c(OC)c(OC)c2)cc1 | 36.8 nM | 6230 nM
2 | CCCCCCCCCCCCCCCCN(CC)CC | 2210 nM | 4550 nM
3 | Cc1ccsc1-c1ccc2c(c1)COC2(CCCN(C)C)c1ccc(F)cc1 (centres undefined) | 1580 nM | 3060 nM
4 | Cc1[nH]c(C(=O)Nc2ccccc2OCc2cccc(C(=O)NC3CCNC3)c2)c(Cl)c1Cl (centres undefined) | 1890 nM | 3600 nM
5 | Cn1c(=O)c(Oc2ccc(F)cc2F)cc2cnc(NC3CCOCC3)nc21 | > 25000 nM | > 25000 nM
6 | NCCSC(c1ccccc1)(c1ccccc1)c1ccccc1 | 357 nM | 1630 nM
7 | CC(=O)N[C@@H](Cc1ccc(OP(=O)(O)O)cc1)C(=O)N[C@H]1CCC(=O)N2CCC[C@@H](C(=O)NCc3ccccc3)N2C1=O | > 25000 nM | > 25000 nM
8 | CNC(=O)c1cccc(C#Cc2cncnc2Nc2ccc(OCc3cccc(F)c3)c(Cl)c2)c1 | 616 nM | 4050 nM
9 | C[C@H]1CCC/C=C/[C@@H]2C[C@H](O)C[C@H]2[C@H](O)/C=C/C(=O)O1 | 31.2 nM | 268 nM
10 | CN(C)C=Nc1c(I)cc(I)c(CCC(=O)O)c1I | > 100000 nM | > 100000 nM
11 | Cc1ccccc1C(C(=O)NC1CCCCC1)N(C(=O)CNc1ncccc1F)c1cccc(F)c1 (centres undefined) | > 65600 nM | > 100000 nM
12 | CCCN(CCC)c1ccc(C=O)c(C)c1 | 1980 nM | 32500 nM
13 | CN(C)Cc1c(C(=O)NCCOc2ccc(C(=O)NO)cc2)oc2ccccc12 | 152 nM | 2360 nM
14 | COc1ccc2c(c1)C(c1cc(OC)c3c(c1)OCO3)C1=C(COC1=O)N2 (centres undefined) | 205 nM | 849 nM
15 | C=CCOC(=O)Nc1cccn([C@H](CC(C)C)C(=O)NCCC(C)C)c1=O | 42400 nM | > 100000 nM
16 | Cc1sc2c(c1C)C(c1ccc(Cl)cc1)=N[C@@H](CC(=O)NCCCN1CCN(C)CC1)c1nnc(C)n1-2 | 197 nM | > 100000 nM
17 | O=C1c2c(Cl)c(Cl)c(Cl)c(Cl)c2C(=O)C2(Cl)CC=CCC12Cl (centres undefined) | 1210 nM | 2880 nM
18 | CN(C)CCOc1ccccc1NC1=C(Cl)C(=O)C(Nc2ccccc2OCCN(C)C)=C(Cl)C1=O | 579 nM | 1170 nM
19 | COC(=O)CNc1nc(N(C)O)nc(N(C)O)n1 | 2160 nM | 17400 nM
20 | O=[N+]([O-])c1ccc2c(c1)C(c1ccccc1Cl)=Nc1c(n[nH]c1-c1cccnc1)N2 | > 25000 nM | > 25000 nM
21 | Nc1ncn([C@H]2C[C@H](OP(=O)(O)OC[C@H]3O[C@@H](n4cnc5c(=O)[nH]c(N)nc54)C[C@@H]3O)[C@@H](CO)O2)c(=O)n1 | 154 nM | 67900 nM
22 | COc1cc2nc3cc([N+](=O)[O-])ccc3c(NCCNCC(C)O)c2cc1OC (centres undefined) | 203 nM | 542 nM
23 | C=CC(=O)N1CC[C@H](n2nc(C#Cc3cc(OC)cc(OC)c3)c3c(N)ncnc32)C1 | 3330 nM | 78500 nM
24 | Cn1cc(C2=C(c3cn(CCCCCO)c4ccccc34)C(=O)NC2=O)c2ccccc21 | 3470 nM | 14100 nM
25 | O=S(=O)(NCCCNc1cc(-c2cn(-c3ccccc3)nc2-c2cccc(O)c2)ccn1)c1ccc(Br)cc1 | 1540 nM | 5610 nM
26 | NC(N)=Nc1ccc(/C=C2\C=Cc3ccccc32)cc1 | 148 nM | 969 nM

Row | Compound | GI50 | TGI
27 | CC/C=C\C[C@H](O)C/C=C1/C(=O)C=C[C@@H]1C/C=C\CCCCO | 1970 nM | 4650 nM
28 | C=C1CC2C3C=C(C)C4=CC(=O)CC[C@]4(C)C3CC[C@]2(C)[C@@]1(OC(C)=O)C(C)=O (some centres undefined) | 3230 nM | > 100000 nM
29 | COc1cc(/C=C/C(=O)c2c(-c3ccc(F)cc3)nc3sc(C)nn23)cc(OC)c1OC | 1920 nM | 7740 nM
30 | CC(C)C[C@@H](C=O)NC(=O)[C@H](CC(C)C)NC(=O)[C@H](CC(C)C)NC(=O)OCc1ccccc1 (Cbz-Leu-Leu-Leu-aldehyde) | 249 nM | 663 nM
31 | C=C1C(=O)O[C@H]2[C@H]1CC/C(CNC(=O)/C=C/c1ccccc1F)=C\CC[C@@]1(C)O[C@@H]21 | 493 nM | 1960 nM
32 | Cc1[nH]nc2ncc(C(=O)N3CCC[C@H]3c3ccc(Cl)cc3)cc12 | 33300 nM | > 100000 nM
33 | COC(=O)[C@@H](C)C[C@H](Cc1ccccc1)NC(=O)c1csc([C@@H](C[C@H](C(C)C)N(C)C(=O)[C@@H](NC(=O)[C@H]2CCCN2C)C2CC2)OC(C)=O)n1 | 0.328 nM and 2.5 nM | > 25000 nM
34 | O=C1NC(=NCCc2ccccn2)S/C1=C\c1ccc2ncccc2c1 | 5770 nM | > 25000 nM
35 | CCNCCNc1cc(-c2ccc(C(F)(F)F)cc2)c(C#N)c2nc3cc(Cl)c(Cl)cc3n12 | 1830 nM | 3390 nM
36 | CN(C)CCS(=O)(=O)Nc1cc(-c2ccc3ncc(C#N)c(Nc4ccc(F)c(Cl)c4)c3c2)cnc1Cl | 58.3 nM | 233 nM
37 | CN1CCN(Cc2ccc(NC(=O)c3cncc(C#Cc4cnc5ccc(OC6CCOCC6)nn45)c3)cc2C(F)(F)F)CC1 | 105 nM | 278 nM
38 | O=c1oc2ccc(Br)cc2c(=O)n1-c1ccc(Cl)cc1F | 1380 nM | 5190 nM
39 | COc1ccc(Cn2cc3c(c2-c2cc(OC)c(OC)c(OC)c2)CCc2c(CO)noc2-3)cc1 | 307 nM | 18900 nM
40 | Oc1ccccc1/C=N\NC(=S)N/N=C/c1ccccc1O | 2240 nM | 30500 nM
41 | NC(=O)n1c(=O)n(-c2cccc(C(F)(F)F)c2)c(=O)c2cc(-c3ccc(F)cc3F)ccc21 | 1840 nM | 5830 nM
42 | Cc1ccccc1C(C(=O)NC1CCCCC1)N(C(=O)CNc1ccc(C#N)cc1)c1cccc(F)c1 (centres undefined) | 25700 nM | > 100000 nM
43 | COc1cc(C2CC(=O)Nc3c2c(C)nn3-c2nc3ccccc3[nH]2)cc(OC)c1O (centres undefined) | 2370 nM | 7090 nM
44 | Cc1cccc(Cl)c1NC(=O)c1cnc(Nc2cc(N3CCOCC3)cc(S(C)(=O)=O)c2)s1 | 1470 nM | 8030 nM
45 | N#CC1=C(N)Oc2c(sc3c(Br)cccc23)C1c1ccc(Cl)cc1 (centres undefined) | 521 nM | 3200 nM
46 | CC(C)Cc1ccc(C(C)C(=O)NCc2ccc(Cn3c(=O)sn(CCCI)c3=O)cc2)cc1 (centres undefined) | 423 nM | 1620 nM
47 | Cc1ccc(OCCOCCOCCOCCOCCOc2ccc(C)n(O)c2=S)c(=S)n1O | 36.8 nM | 412 nM
48 | C=CC(=O)Nc1cccc(Oc2nc(Nc3ccc(N4CCN(C)CC4)cc3OC)ncc2Cl)c1 | 113 nM | 518 nM
49 | O=C(O)c1cn(C2CC2)c2cc(N3CCN(Cc4c(O)ccc5ccccc45)CC3)c(F)cc2c1=O | 15200 nM | > 100000 nM
50 | CC1Cc2ccccc2N1C(=O)Cc1nc(N2CCOCC2)cc(=O)[nH]1 (centres undefined) | 2060 nM and 5780 nM | 17100 nM and 47500 nM
51 | O=C1CC(N2C(=O)/C(=C/C(Cl)=C\c3ccc([N+](=O)[O-])cc3)SC2=S)C(=O)N1c1ccc(O)cc1 (centres undefined) | 1870 nM | 5700 nM
52 | NC(=O)c1cc(Br)ccc1NC(=O)/C=C/c1ccccc1 | 837 nM | 4320 nM

Source: PubChem BioAssay (NCI)
